The values that follow come from PMC8544286, “Screening and Identification of a Novel Anti-tuberculosis Compound That Targets Deoxyuridine 5′-Triphosphate Nucleotidohydrolase” (Frontiers in Microbiology, 2021).

The MIC is the least concentration at which growth counts as inhibited. The CC50 is the concentration giving 50% cytotoxicity. Read a high CC50 as lower toxicity to the cells. Usually IC50 stands for the point on the concentration scale where inhibition reaches its midpoint. A higher IC50 goes with weaker potency.

Series [1] deals with sensitive strain STB-FJ05060. The series can be described thus: Microplate alamar blue assay (MABA), STB-FJ05060. Format: cell-based. The conditions noted are these: Mycobacterium tuberculosis, STBFJ05060, 168 h. On the technique in general: The colour change of resazurin is a common sign of viable cells or microbes.
For series [2], the system named is M. tuberculosis standard strain H37Rv. The series can be described thus: Microplate alamar blue assay (MABA), H37Rv. The series is classed as cell-based. The conditions noted are these: Mycobacterium tuberculosis, 168 h.
Series [3] concerns sensitive strain STB-FJ05349. The series can be described thus: Microplate alamar blue assay (MABA), STB-FJ05349. Format: cell-based. The conditions noted are these: Mycobacterium tuberculosis, STBFJ05349, 168 h.
Another series is described as follows: in vitro. The series is classed as cell-based. Particulars: 24 h, CCK-8. The method, then: MRC-5, Vero E6, and Caco-2 cells were tested. […] Meanwhile, 2% DMSO was used as a negative control. After incubation for 24 h, 2-(2-methoxy-4-nitrophenyl)-3-(4-nitrophenyl)-5-(2,4-disulfophenyl)-2H-tetrazolium, monosodium salt (WST-8) was added. The experimental method referred to the kit instructions. All the experiments were repeated three times.

The target of series [4] is T1, human dUTPase (Homo sapiens, UniProt P33316). The series can be described thus: biochemical.
Series [5] addresses T1, human dUTPase. The series can be described thus: Surface plasmon resonance (SPR), human dUTPase. Format: binding. The conditions noted are these: human dUTPase on CM5 chip. On the technique in general: Surface plasmon resonance follows binding to a sensor surface in real time, without labels.
Series [6] concerns the target M. tuberculosis dUTPase (Mt-dUTPase) (Mycobacterium tuberculosis, UniProt P9WNS5). The series is classed as biochemical.
[7] abbreviates: STB-FJ05060, MABA, 7 days at 37°C, read-out: MIC.
Setting [8] is: H37Rv, MABA, 7 days at 37°C, read-out: MIC.
Where [9] appears, read: STB-FJ05349, MABA, 7 days at 37°C, read-out: MIC.

Each structure is given as a SMILES string. In brackets after ≈: the same amount, converted by molar mass. Like-named read-outs stand apart in the source and are kept apart here. Where only a bound is given, the exact number is not on record here.

T1 sequence (P33316 other isoform, or with tags, fused parts or gaps): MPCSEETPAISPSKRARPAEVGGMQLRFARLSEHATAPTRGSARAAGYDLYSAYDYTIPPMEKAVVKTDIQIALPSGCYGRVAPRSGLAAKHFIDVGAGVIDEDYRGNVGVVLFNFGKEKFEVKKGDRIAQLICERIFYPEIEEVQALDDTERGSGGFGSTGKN
M. tuberculosis dUTPase (Mt-dUTPase), sequence (P9WNS5 whole entry): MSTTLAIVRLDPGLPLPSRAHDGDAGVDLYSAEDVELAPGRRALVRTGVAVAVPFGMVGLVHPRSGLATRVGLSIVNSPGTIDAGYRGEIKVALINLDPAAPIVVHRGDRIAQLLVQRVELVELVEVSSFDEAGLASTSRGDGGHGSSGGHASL

For the molecule `CO[C@H]1/C=C/O[C@@]2(C)Oc3c(C)c(O)c4c(O)c(c(/C=N/N5CCN(C)CC5)c(O)c4c3C2=O)NC(=O)/C(C)=C\C=C\[C@H](C)[C@H](O)[C@@H](C)[C@@H](O)[C@@H](C)[C@H](OC(C)=O)[C@@H]1C` [Rifampicin], the MIC was 0.5 µg/mL (≈ 0.608 µM) in series [1], 0.25 µg/mL (≈ 0.304 µM) in series [2] (H37RV) and 0.5 µg/mL (≈ 0.608 µM) in series [3].
In the case of `C=CCn1c(/C=C/c2ccccc2)nc2ccccc21` [F0414], the CC50 in “in vitro” (African green monkey, Vero E6 cells) is over 200 µM; in “in vitro” (African green monkey, Vero E6 cells, approximate conversion of >200 μM), over 52 µg/mL; in “in vitro” (human, Caco2 cells), over 200 µM; in “in vitro” (human, Caco2 cells, approximate conversion of >200 μM), over 52 µg/mL; in “in vitro” (human, MRC-5 cells) it was over 200 µM; in “in vitro” (human, MRC-5 cells, approximate conversion of >200 μM), over 52 µg/mL. The IC50 was 3.18 ± 0.96 µM against human dUTPase [4] (luminescence readout) and 3.19 µM against human dUTPase [4] (same IC50 printed in μg/mL). The MIC in series [1] (setting [7]), in series [2] (setting [8]) and in series [3] (setting [9]) was 4 µg/mL (≈ 15.4 µM) each time. At human dUTPase [5], the “SPR binding to human dUTPase” value was “almost no RU signals”.
For the molecule `NNC(=O)c1ccncc1` [Isoniazid], the MIC in series [1] (setting [7]) worked out at 0.5 µg/mL (≈ 3.65 µM); in series [2] (setting [8]), 0.25 µg/mL (≈ 1.82 µM); in series [3] (setting [9]), 0.5 µg/mL (≈ 3.65 µM).
On to `O=c1ccn([C@H]2C[C@H](O)[C@@H](COC(c3ccccc3)(c3ccccc3)c3ccccc3)O2)c(=O)[nH]1` [Trt-dU], for which half-maximal inhibition in series [6] (compound pre-incubated with enzyme 1 h at room temperature, luminescence readout) (IC50) required 1.04 ± 0.08 µM. Moreover, the “IC50 (Mt-dUTPase)” value in series [6] (same IC50 printed in μg/ml) turned out to be 0.49 ± 0.02 µg/mL (≈ 1.04 µM).
